# Test results reported in ChEMBL document CHEMBL3351643, “A potent cyclic peptide targeting SPSB2 protein as a potential anti-infective agent” (J Med Chem, 2014).
# Calls of active or inactive are those of the source. No cut-off for these calls is given here. Where a SMILES comes first, the peptide text is derived from it. Bridges are numbered along the chain shown (N, C = ends).
# Columns and labels:
# [1] = Stability in human plasma assessed as compound remaining at 50 uM after 24 hrs by RP-HPLC analysis; format: ADME, cell-free; settings: read-out: Stability
# [2] = Stability of the compound assessed as pepsin (unknown origin)-mediated drug degradation at 200:1 peptide to enzyme ratio after 24 to 96 hrs by RP-HPLC analysis; format: ADME; settings: human
# [3] = Stability of the compound in 1:1 ratio of DTT:H2O2 at 0.5 mg/ml after 1 hr by redox stability/RP-HPLC assay; format: physicochemical; settings: 1:1 DTT:H2O2; read-out: Stability
# [4] = Stability of the compound assessed as alpha-chymitrypsin (unknown origin)-mediated drug degradation at 200:1 peptide to enzyme ratio after 24 to 96 hrs by RP-HPLC analysis; format: ADME; settings: human
# [5] = Stability of the compound assessed as trypsin (unknown origin)-mediated drug degradation at 200:1 peptide to enzyme ratio after 24 to 96 hrs by RP-HPLC analysis; format: ADME; settings: human
# [6] = target: T1, SPRY domain-containing SOCS box protein 2 (Mus musculus) (UniProt O88838); test: Displacement of full-length of iNOS from SPSB2 in LPS/IFNgamma-stimulated mouse BMDM cell lysate at 10 uM after 2 hrs by Western blotting analysis; format: cell-free
# T1 sequence (whole entry): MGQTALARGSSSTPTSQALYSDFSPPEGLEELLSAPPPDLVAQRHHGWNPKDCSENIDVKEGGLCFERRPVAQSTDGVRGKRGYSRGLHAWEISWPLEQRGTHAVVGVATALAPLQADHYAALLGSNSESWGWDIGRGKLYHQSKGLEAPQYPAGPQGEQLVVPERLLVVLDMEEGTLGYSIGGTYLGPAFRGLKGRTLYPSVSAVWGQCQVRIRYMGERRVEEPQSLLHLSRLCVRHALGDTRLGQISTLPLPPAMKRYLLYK
# [7] = target: T2, SPRY domain-containing SOCS box protein 2 (Homo sapiens, UniProt Q99619); test: Binding affinity to GST-tagged SPSB2 (unknown origin) expressed in Escherichia coli BL21 (DE3) by SPR assay
# T2 sequence (Q99619 whole entry): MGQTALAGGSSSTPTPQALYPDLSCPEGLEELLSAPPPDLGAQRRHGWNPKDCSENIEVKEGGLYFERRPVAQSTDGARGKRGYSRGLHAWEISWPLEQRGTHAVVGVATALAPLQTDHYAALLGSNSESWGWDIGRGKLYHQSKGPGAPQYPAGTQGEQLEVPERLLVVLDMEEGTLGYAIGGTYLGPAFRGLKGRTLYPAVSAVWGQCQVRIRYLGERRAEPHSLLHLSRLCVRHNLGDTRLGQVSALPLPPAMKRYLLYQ
# [8] = Stability of the compound in 1 mM DTT at 0.5 mg/ml after 15 mins by redox stability/RP-HPLC assay; format: physicochemical; settings: 0.25 h
# [9] = Stability of the compound in 1:10 ratio of DTT:H2O2 at 0.5 mg/ml after 1 hr by redox stability/RP-HPLC assay; format: physicochemical
compound,measurement,setting,value
Ac-KEEKDINNNVKKT-NH2,"remaining at 24 h, 50 µM",[1],83%
same,Stability,[2],Unstable
CC[C@H](C)[C@H](NC(=O)[C@H](CC(=O)O)NC(=O)[C@@H](NC(=O)[C@H](CS)NC(C)=O)C(C)C)C(=O)N[C@@H](CC(N)=O)C(=O)N[C@@H](CC(N)=O)C(=O)N[C@@H](CC(N)=O)C(=O)N[C@@H](CS)C(N)=O (Ac-CVDINNNC-NH2),"remaining at 1 h, 0.5 mg/ml",[3],55%
same,Stability,[4],Stable
same,Stability,[5],Stable
same,inhibition,[6],Active
same,Kd,[7],35.1 nM
same,Stability,[8],Unstable
same,Stability,[2],Stable
same,Stability,[9],Stable
Ac-DINNN-NH2,Kd,[7],318 nM
CC[C@H](C)[C@@H]1NC(=O)[C@H](CC(=O)O)NC(=O)[C@H](C(C)C)NC(=O)[C@@H](NC(C)=O)CSSC[C@@H](C(N)=O)NC(=O)[C@H](CC(N)=O)NC(=O)[C@H](CC(N)=O)NC(=O)[C@H](CC(N)=O)NC1=O (Ac-CVDINNNC-NH2; disulfide 1-8),Kd,[7],4.4 nM
